Results taken from patent EP2712863B1, “Novel inhibitors of bacterial biofilms and related methods” (Sequoia Sciences, Inc., priority 2012, dated 2014).
≈ marks a conversion by molar mass, not a printed value. Read-outs that look alike come from different tables or passages of the source.

Tests used:
P. aeruginosa = assay: Biofilm growth assay (spreading biofilm on semi-solid agar); assay type: cell-based; conditions: Pseudomonas aeruginosa, read-out: P. aeruginosa
Source text: (§1) "Biofilm Growth Assay" refers to an assay performed on semi-solid agar surface where the bacteria collectively move out from an inoculation point. To those skilled in the art, the act of bacteria collectively moving out from an inoculation point on a semi-solid surface may be referred to as swarming or a spreading biofilm. (Anderson, et al Microbiology, 2003, 149, 37-46; Daniels, et al. FEMS Microbiology Reviews, 2004, 28, 261-289). The procedure to perform this assay is described in detail in the Examples. This type of surface motility by bacteria has been reported in the literature by those skilled in the art.
(§2) The biofilm growth assay was carried out to measure swarming or biofilm spreading on semi-solid agar media in round plates (for example, 100 × 15 mm), also referred to as Petri dishes. For E. coli, the plates contained LB medium with 0.6% agar and 0.5% glucose. P. aeruginosa plates were made with M8 agar supplemented with 0.2% glucose, 100 µM CaCl2, 1 mM MgSO4, and 0.5% Casamino acids. The agar plates of this assay consisted of 0.4% to 0.7% agar (Bacto or Noble agar), although other media may also be used as described in the literature and known to those skilled in the art. Test compounds at the desired concentration were added to the cooled, autoclaved media. Portions of the media were then poured into the plates (20 mL/plate), and the plates allowed to dry at room temperature for approximately 3 to 4 hours. Alternatively, however, plates may be dried in a laminar flow hood for approximately fifteen to twenty minutes. Overnight cultures were grown in a 37°C shaker in LB (E. coli) or TSB (P. aeruginosa). Plates were inoculated by placing 5 µL of the appropriate overnight culture in the centers of the plates. The plates then were incubated overnight at 37°C. The area of the zone of spreading bacteria was then measured and replicates are averaged. Percent inhibition was calculated as 100 × (area without compound - area with compound)/(area without compound). An active compound was considered that which reduces the area of the spreading biofilm compared to negative controls by greater than or equal to 85%. The values shown in Table 1 are the concentrations of compounds (µg/ml) tested in the biofilm growth assay that reduce the area of the spreading biofilm compared to negative controls by greater than or equal to 85% unless noted differently in Table 1. A > ("greater than" symbol) as used in Table 1 is well understood to those skilled in the art as an indication that the listed concentration was not effective at this concentration.
(§3) All of the compounds shown in Tables 2, 3, 4, and 5, below, were prepared semi-synthetically from oleanolic acid, except for Compounds 2 and 3. Compound 2 was prepared from ursolic acid. Compound 3 was prepared from hederagenin, but could also be prepared from an oleanolic acid analog with a hydroxyl at C23 or C24. These compounds were tested in the spreading biofilm assay according to the methods detailed in Example I, above. The values shown in Tables 2, 3, 4, and 5 are the concentrations of compounds tested in the biofilm growth assay that reduce the area of the spreading biofilm compared to negative controls by greater than or equal to 85%. Table 2. Compound 1 and its Analogs and their inhibitory concentrations in the biofilm growth assay as detailed in Example I, above

E. coli = assay: as above; assay type: cell-based; conditions: Escherichia coli, read-out: E. coli
Source text: as §1, §2, §3

[1] = Table 3, concentration that reduces the area of the spreading biofilm by >= 85%
[2] = Table 2, concentration that reduces the area of the spreading biofilm by >= 85%
[3] = Table 1, concentration that reduces the area of the spreading biofilm vs negative controls by >= 85%, > means not effective at this concentration
[4] = Table 4, concentration that reduces the area of the spreading biofilm by >= 85%

SMILES	IC85 (P. aeruginosa; [1]) [µg/mL]	IC85 (E. coli; [1]) [µg/mL]	also measured
CN(C)c1cc(C2=C3[C@@H]4CC(C)(C)CC[C@]4(C(=O)O)CC[C@@]3(C)[C@]3(C)CC[C@H]4C(C)(C)c5n[nH]c(N)c5C[C@]4(C)C3C2)ccn1 (stereo partly drawn) [Compound 22, (4aS,6aS,6bR,8aR,13aR,15bS)-12-Amino-15-(2-(dimethylamino)pyridin-4-yl)-2,2,6a,6b,9,9,13a-heptamethyl-2,3,4,4a,5,6,6a,6b,7,8,8a,9,11,13,13a,13b,14,15b-octadecahydro-1H-chryseno[1,2-f]indazole-4a-carboxylic acid]	1 (≈ 1.63 µM)	> 2	–
CC1(C)CC[C@]2(C(=O)O)CC[C@]3(C)C(=C(c4ccc5c(c4)CCN5)CC4[C@@]5(C)Cc6c(n[nH]c6N)C(C)(C)C5CC[C@]43C)C2C1 (stereo partly drawn) [Compound 11, (4aS,6aS,6bR,13aR)-12-Amino-15-(indolin-5-yl)-2,2,6a,6b,9,9,13a-heptamethyl-2,3,4,4a,5,6,6a,6b,7,8,8a,9,11,13,13a,13b,14,15b-octadecahydro-1H-chryseno[1,2-f]indazole-4a-carboxylic acid]	–	–	IC85 (P. aeruginosa; [2]): 0.5 µg/mL (≈ 0.818 µM); IC85 (E. coli; [2]): 0.5 µg/mL (≈ 0.818 µM)
CC1(C)CC[C@]2(C(=O)O)CC[C@]3(C)C(=C(c4ccc(N5CCOCC5)cc4)CC4[C@@]5(C)Cc6c(n[nH]c6N)C(C)(C)C5CC[C@]43C)C2C1 (stereo partly drawn) [Compound 51, (4aS,6aS,6bR,13aR)-12-Amino-2,2,6a,6b,9,9,13a-heptamethyl-15-(4-morpholinophenyl)-2,3,4,4a,5,6,6a,6b,7,8,8a,9,11,13,13a,13b,14,15b-octadecahydro-1H-chryseno[1,2-f]indazole-4a-carboxylic acid]	0.5 (≈ 0.763 µM)	2 (≈ 3.05 µM)	–
Cn1cc2c(n1)C(C)(C)C1CC[C@]3(C)C(CC=C4C5CC(C)(C)CC[C@]5(C(=O)O)CC[C@]43C)[C@@]1(C)C2 (stereo partly drawn) [E]	–	–	IC85 (P. aeruginosa; [3]): 2 µg/mL (≈ 4.06 µM); IC85 (E. coli; [3]): > 16 µg/mL
CC1(C)CC[C@]2(C(=O)O)CC[C@]3(C)C(=C(c4ccsc4CN4CCOCC4)CC4[C@@]5(C)Cc6c(n[nH]c6N)C(C)(C)C5CC[C@]43C)C2C1 (stereo partly drawn) [Compound 34, (4aS,6aS,6bR,13aR)-12-Amino-2,2,6a,6b,9,9,13a-heptamethyl-15-(2-(morpholinomethyl)thiophen-3-yl)-2,3,4,4a,5,6,6a,6b,7,8,8a,9,11,13,13a,13b,14,15b-octadecahydro-1H-chryseno[1,2-f]indazole-4a-carboxylic acid]	1 (≈ 1.48 µM)	1 (≈ 1.48 µM)	–
CC1(C)CC[C@]2(C(=O)O)CC[C@]3(C)C(=C(c4ccc5[nH]ccc5c4)CC4[C@@]5(C)Cc6c(n[nH]c6N)C(C)(C)C5CC[C@]43C)C2C1 (stereo partly drawn) [Compound 49, (4aS,6aS,6bR,13aR)-12-Amino-15-(1H-indol-5-yl)-2,2,6a,6b,9,9,13a-heptamethyl-2,3,4,4a,5,6,6a,6b,7,8,8a,9,11,13,13a,13b,14,15b-octadecahydro-1H-chryseno[1,2-f]indazole-4a-carboxylic acid]	0.5 (≈ 0.821 µM)	> 1	–
CC1(C)CC[C@]2(C(=O)n3cnc(S)n3)CC[C@]3(C)C(=CCC4[C@@]5(C)Cc6c(n[nH]c6N)C(C)(C)C5CC[C@]43C)C2C1 (stereo partly drawn) [Compound 76, ((4aS,6aS,6bR,13aR)-12-Amino-2,2,6a,6b,9,9,13a-heptamethyl-2,3,4,4a,5,6,6a,6b,7,8,8a,9,11,13,13a,13b,14,15b-octadecahydro-1H-chryseno[1,2-f]indazol-4a-yl)(3-mercapto-1H-1,2,4-triazol-1-yl)methanone]	–	–	IC85 (P. aeruginosa; [4]): 0.5 µg/mL (≈ 0.867 µM); IC85 (E. coli; [4]): 2 µg/mL (≈ 3.47 µM)
CC1(C)CC[C@]2(c3n[nH]c(O)c3CCNC(N)=O)CC[C@]3(C)C(=CCC4[C@@]5(C)Cc6c(n[nH]c6N)C(C)(C)C5CC[C@]43C)C2C1 (stereo partly drawn) [Compound 87, 1-(2-(3-((4aS,6aS,6bR,13aR)-12-Amino-2,2,6a,6b,9,9,13a-heptamethyl-2,3,4,4a,5,6,6a,6b,7,8,8a,9,11,13,13a,13b,14,15b-octadecahydro-1H-chryseno[1,2-f]indazol-4a-yl)-5-hydroxy-1H-pyrazol-4-yl)ethyl)urea]	–	–	IC85 (P. aeruginosa; [4]): 0.5 µg/mL (≈ 0.809 µM); IC85 (E. coli; [4]): 1 µg/mL (≈ 1.62 µM)
CC1(C)CC[C@]2(c3n[nH]c(O)c3F)CC[C@]3(C)C(=CCC4[C@@]5(C)Cc6c(n[nH]c6N)C(C)(C)C5CC[C@]43C)C2C1 (stereo partly drawn) [Compound 83, 3-((4aS,6aS,6bR,13aR)-12-Amino-2,2,6a,6b,9,9,13a-heptamethyl-2,3,4,4a,5,6,6a,6b,7,8,8a,9,11,13,13a,13b,14,15b-octadecahydro-1H-chryseno[1,2-f]indazol-4a-yl)-4-fluoro-1H-pyrazol-5-ol]	–	–	IC85 (P. aeruginosa; [4]): 0.25 µg/mL (≈ 0.455 µM); IC85 (E. coli; [4]): 0.5 µg/mL (≈ 0.909 µM)
CN(C)c1ccc(C2=C3[C@@H]4CC(C)(C)CC[C@]4(C(=O)O)CC[C@@]3(C)[C@]3(C)CC[C@H]4C(C)(C)c5n[nH]c(N)c5C[C@]4(C)C3C2)cn1 (stereo partly drawn) [Compound 44, (4aS,6aS,6bR,8aR,13aR,15bS)-12-Amino-15-(6-(dimethylamino)pyridin-3-yl)-2,2,6a,6b,9,9,13a-heptamethyl-2,3,4,4a,5,6,6a,6b,7,8,8a,9,11,13,13a,13b,14,15b-octadecahydro-1H-chryseno[1,2-f]indazole-4a-carboxylic acid]	0.5 (≈ 0.814 µM)	2 (≈ 3.26 µM)	–
CC1(C)CC[C@]2(C(=O)O)CC[C@]3(C)C(=C(c4ccncc4)CC4[C@@]5(C)Cc6c(n[nH]c6N)C(C)(C)[C@@H]5CC[C@]43C)[C@@H]2C1 (stereo partly drawn) [Compound 29, (4aS,6aS,6bR,8aR,13aR,15bS)-12-Amino-2,2,6a,6b,9,9,13a-heptamethyl-15-(pyridin-4-yl)-2,3,4,4a,5,6,6a,6b,7,8,8a,9,11,13,13a,13b,14,15b-octadecahydro-1H-chryseno[1,2-f]indazole-4a-carboxylic acid]	1 (≈ 1.75 µM)	1 (≈ 1.75 µM)	–
CC1(C)CC[C@]2(C(=O)O)CC[C@]3(C)C(=C(c4cncnc4)CC4[C@@]5(C)Cc6c(n[nH]c6N)C(C)(C)[C@@H]5CC[C@]43C)[C@@H]2C1 (stereo partly drawn) [Compound 30, (4aS,6aS,6bR,8aR,13aR,15bS)-12-Amino-2,2,6a,6b,9,9,13a-heptamethyl-15-(pyrimidin-5-yl)-2,3,4,4a,5,6,6a,6b,7,8,8a,9,11,13,13a,13b,14,15b-octadecahydro-1H-chryseno[1,2-f]indazole-4a-carboxylic acid]	2 (≈ 3.5 µM)	1 (≈ 1.75 µM)	–
CC1(C)CC[C@]2(c3n[nH]c(O)c3CCO)CC[C@]3(C)C(=CCC4[C@@]5(C)Cc6c(n[nH]c6N)C(C)(C)C5CC[C@]43C)C2C1 (stereo partly drawn) [Compound 81, 3-((4aS,6aS,6bR,13aR)-12-Amino-2,2,6a,6b,9,9,13a-heptamethyl-2,3,4,4a,5,6,6a,6b,7,8,8a,9,11,13,13a,13b,14,15b-octadecahydro-1H-chryseno[1,2-f]indazol-4a-yl)-4-(2-hydroxyethyl)-1H-pyrazol-5-ol]	–	–	IC85 (P. aeruginosa; [4]): 0.5 µg/mL (≈ 0.868 µM); IC85 (E. coli; [4]): 1 µg/mL (≈ 1.74 µM)
C=CC1=C2[C@@H]3CC(C)(C)CC[C@]3(C(=O)O)CC[C@@]2(C)[C@]2(C)CC[C@H]3C(C)(C)c4n[nH]c(N)c4C[C@]3(C)C2C1 (stereo partly drawn) [Compound 13, (4aS,6aS,6bR,8aR,13aR,15bS)-12-Amino-2,2,6a,6b,9,9,13a-heptamethyl-15-vinyl-2,3,4,4a,5,6,6a,6b,7,8,8a,9,11,13,13a,13b,14,15b-octadecahydro-1H-chryseno[1,2-f]indazole-4a-carboxylic acid]	0.5 (≈ 0.962 µM)	1 (≈ 1.92 µM)	–
CC1(C)CC[C@]2(C(=O)O)CC[C@]3(C)C(=C(c4ccc(N)c(F)c4)CC4[C@@]5(C)Cc6c(n[nH]c6N)C(C)(C)C5CC[C@]43C)C2C1 (stereo partly drawn) [Compound 31, (4aS,6aS,6bR,13aR)-12-Amino-15-(4-amino-3-fluorophenyl)-2,2,6a,6b,9,9,13a-heptamethyl-2,3,4,4a,5,6,6a,6b,7,8,8a,9,11,13,13a,13b,14,15b-octadecahydro-1H-chryseno[1,2-f]indazole-4a-carboxylic acid]	0.5 (≈ 0.829 µM)	1 (≈ 1.66 µM)	–
